# Laboratory results published in patent publication US20220226299A1 (NIPPON CHEMIPHAR CO., LTD., priority 2019, published 2022).
# Molecular target: T1, human Cav3.2 channels (Homo sapiens, UniProt O95180)
# T1 construct: human Cav3.2 channel ORF (Open Reading Frame) gene; expressed in transfected cells; host or cells: HEK293 cells (ATCC No. CRL-1573), pcDNA3.1(+) plasmid
# Experiment: T-type calcium blocking action: intracellular calcium (Fluo-4 AM fluorescence) in HEK293 cells steadily expressing human Cav3.2 channels
# Format: cell-based
# Conditions: HEK293 cells expressing human Cav3.2; KCl-stimulated calcium influx, Fluo-4 fluorescence; Tables 1 to 3
# Procedure, shortened: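 Fluo-4 AM-loaded stable HEK293 cells were preincubated 15 min at RT with compound (0.1% DMSO final) in choline-based buffer (pH 7.3). Gramicidin was added, then KCl-induced calcium influx was read at 485/510 nm for 10 s. Percent block came from peak rise over baseline, and IC50 from log-concentration plots.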
# T1 sequence (O95180 whole entry): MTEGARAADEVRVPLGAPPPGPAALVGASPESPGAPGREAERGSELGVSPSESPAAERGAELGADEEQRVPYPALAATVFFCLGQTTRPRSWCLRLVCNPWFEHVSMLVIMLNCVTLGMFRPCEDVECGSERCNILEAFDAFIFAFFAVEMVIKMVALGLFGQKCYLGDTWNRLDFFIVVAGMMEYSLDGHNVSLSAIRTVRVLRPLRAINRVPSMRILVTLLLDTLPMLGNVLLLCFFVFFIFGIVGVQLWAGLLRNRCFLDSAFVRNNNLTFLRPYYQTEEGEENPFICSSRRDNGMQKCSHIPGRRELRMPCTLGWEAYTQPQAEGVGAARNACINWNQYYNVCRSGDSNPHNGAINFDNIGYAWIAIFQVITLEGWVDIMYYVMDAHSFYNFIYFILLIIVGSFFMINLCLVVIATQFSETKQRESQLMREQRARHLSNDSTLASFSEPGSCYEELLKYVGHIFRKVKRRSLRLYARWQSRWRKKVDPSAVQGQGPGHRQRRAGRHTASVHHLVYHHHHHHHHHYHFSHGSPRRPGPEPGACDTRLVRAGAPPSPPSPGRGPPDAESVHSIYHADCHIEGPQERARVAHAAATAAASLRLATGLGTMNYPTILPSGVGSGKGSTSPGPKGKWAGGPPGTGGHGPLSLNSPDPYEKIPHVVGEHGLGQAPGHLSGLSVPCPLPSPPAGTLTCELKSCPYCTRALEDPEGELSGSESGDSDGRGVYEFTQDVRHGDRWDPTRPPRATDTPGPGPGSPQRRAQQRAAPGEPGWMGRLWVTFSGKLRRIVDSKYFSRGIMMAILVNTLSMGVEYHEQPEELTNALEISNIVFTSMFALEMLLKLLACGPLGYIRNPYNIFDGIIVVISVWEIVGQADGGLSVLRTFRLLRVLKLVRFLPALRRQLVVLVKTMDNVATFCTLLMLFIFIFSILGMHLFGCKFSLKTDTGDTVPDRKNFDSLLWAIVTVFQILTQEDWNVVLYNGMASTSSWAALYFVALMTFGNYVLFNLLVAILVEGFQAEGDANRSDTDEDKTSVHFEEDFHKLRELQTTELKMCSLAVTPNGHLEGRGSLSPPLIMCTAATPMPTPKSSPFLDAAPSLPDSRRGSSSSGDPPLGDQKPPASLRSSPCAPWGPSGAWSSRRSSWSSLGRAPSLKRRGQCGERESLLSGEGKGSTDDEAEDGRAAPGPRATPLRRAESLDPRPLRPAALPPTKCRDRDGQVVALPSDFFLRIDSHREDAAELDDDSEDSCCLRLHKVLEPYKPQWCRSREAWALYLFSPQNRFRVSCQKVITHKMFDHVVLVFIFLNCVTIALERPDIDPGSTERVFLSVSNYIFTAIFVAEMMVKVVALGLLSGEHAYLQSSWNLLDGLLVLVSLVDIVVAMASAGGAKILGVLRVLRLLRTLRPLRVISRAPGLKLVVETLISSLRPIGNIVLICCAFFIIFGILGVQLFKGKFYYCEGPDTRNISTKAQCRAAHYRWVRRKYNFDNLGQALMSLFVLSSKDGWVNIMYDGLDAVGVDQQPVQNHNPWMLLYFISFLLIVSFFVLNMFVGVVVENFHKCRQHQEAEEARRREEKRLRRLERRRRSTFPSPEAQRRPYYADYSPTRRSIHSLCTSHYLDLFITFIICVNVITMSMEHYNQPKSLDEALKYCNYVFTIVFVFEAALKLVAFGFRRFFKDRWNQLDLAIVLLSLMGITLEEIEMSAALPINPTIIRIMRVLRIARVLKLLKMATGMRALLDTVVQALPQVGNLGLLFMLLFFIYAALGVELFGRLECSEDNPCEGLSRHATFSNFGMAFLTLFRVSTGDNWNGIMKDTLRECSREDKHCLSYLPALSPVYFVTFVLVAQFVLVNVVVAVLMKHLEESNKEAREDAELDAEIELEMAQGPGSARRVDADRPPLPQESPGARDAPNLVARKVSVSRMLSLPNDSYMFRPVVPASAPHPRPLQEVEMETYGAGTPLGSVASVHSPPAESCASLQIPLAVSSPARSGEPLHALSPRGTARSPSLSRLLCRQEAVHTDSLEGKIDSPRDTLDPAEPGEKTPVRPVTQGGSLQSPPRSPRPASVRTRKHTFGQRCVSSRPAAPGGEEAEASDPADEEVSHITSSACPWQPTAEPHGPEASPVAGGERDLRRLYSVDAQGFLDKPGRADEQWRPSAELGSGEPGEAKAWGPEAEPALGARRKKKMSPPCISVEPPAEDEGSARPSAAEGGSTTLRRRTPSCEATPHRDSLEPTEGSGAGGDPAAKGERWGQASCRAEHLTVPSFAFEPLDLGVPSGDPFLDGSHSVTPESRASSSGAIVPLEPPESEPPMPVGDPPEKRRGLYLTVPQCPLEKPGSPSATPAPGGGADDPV
row,IC50 [nM],SMILES
1,180,"O=C(Cc1ccc(N2CCC(F)(F)C2)cc1)N[C@@H]1CCN(c2ccc(C(F)(F)F)nc2)C1 [Example 84, (R)-2-(4-(3,3-difluoropyrrolidin-1-yl)phenyl)-N-(1-(6-(trifluoromethyl)pyridin-3-yl)pyrrolidin-3-yl)acetamide]"
2,110,"O=C(Cc1ccc2cc[nH]c2c1)N[C@@H]1CCN(c2ccc(C(F)(F)F)nc2)C1 [Example 85, (R)-2-(1H-indol-6-yl)-N-(1-(6-(trifluoromethyl)pyridin-3-yl)pyrrolidin-3-yl)acetamide]"
3,370,"C[C@@H]1CN(c2ccc(CC(=O)N[C@@H]3CCN(c4cncc(C(F)(F)F)c4)C3)cc2)C[C@H](C)O1 [Example 86, 2-(4-((2R,6S)-2,6-dimethylmorpholino)phenyl)-N—((R)-1-(5-(trifluoromethyl)pyridin-3-yl)pyrrolidin-3-yl) acetamide]"
4,5.4,"O=C(Cc1ccc(N2CCCC2)cc1)N[C@@H]1CCN(c2cncc(C(F)(F)F)c2)C1 [Example 87, (R)-2-(4-(pyrrolidin-1-yl)phenyl)-N-(1-(5-(trifluoromethyl)pyridin-3-yl)pyrrolidin-3-yl)acetamide]"
5,19,"COCCN(C)c1ccc(CC(=O)N[C@@H]2CCN(c3cncc(C(F)(F)F)c3)C2)cc1 [Example 88, (R)-2-(4-((2-methoxyethyl)(methyl)amino)phenyl)-N-(1-(5-(trifluoromethyl)pyridin-3-yl)pyrrolidin-3-yl)acetamide]"
6,430,"O=C(Cc1ccc(C(F)(F)F)cc1)NC1CN(c2cncc(C(F)(F)F)c2)C1 [Example 89, 2-(4-(Trifluoromethyl)phenyl)-N-(1-(5-(trifluoromethyl)pyridin-3-yl)azetidin-3-yl)acetamide]"
7,130,"O=C(Cc1ccc2cc[nH]c2c1)NC1CN(c2cncc(C(F)(F)F)c2)C1 [Example 90, 2-(1H-indol-6-yl)-N-(1-(5-(trifluoromethyl)pyridin-3-yl)azetidin-3-yl)acetamide]"
8,32,"Cn1ccc2ccc(CC(=O)N[C@@H]3CCN(c4cncc(C(F)(F)F)c4)C3)cc21 [Example 91, (R)-2-(1-methyl-1H-indol-6-yl)-N-(1-(5-(trifluoromethyl)pyridin-3-yl)pyrrolidin-3-yl)acetamide]"
9,72,"Cn1ccc2ccc(CC(=O)N[C@@H]3CCN(c4ccc(C(F)(F)F)nc4)C3)cc21 [Example 92, (R)-2-(1-methyl-1H-indol-6-yl)-N-(1-(6-(trifluoromethyl)pyridin-3-yl)pyrrolidin-3-yl)acetamide]"
10,340,"CN1CCN(c2ccc(CC(=O)N[C@@H]3CCN(c4cncc(C(F)(F)F)c4)C3)cc2)CC1 [Example 93, (R)-2-(4-(4-methylpiperazin-1-yl)phenyl)-N-(1-(5-(trifluoromethyl)pyridin-3-yl)pyrrolidin-3-yl)acetamide]"
11,910,"O=C(Cc1ccc(N2CCNCC2)cc1)N[C@@H]1CCN(c2cncc(C(F)(F)F)c2)C1 [Example 94, (R)-2-(4-(piperazin-1-yl)phenyl)-N-(1-(5-(trifluoromethyl)pyridin-3-yl)pyrrolidin-3-yl)acetamide]"
12,230,"CC(=O)N1CCN(c2ccc(CC(=O)N[C@@H]3CCN(c4cncc(C(F)(F)F)c4)C3)cc2)CC1 [Example 95, (R)-2-(4-(4-acetylpiperazin-1-yl)phenyl)-N-(1-(5-(trifluoromethyl)pyridin-3-yl)pyrrolidin-3-yl)acetamide]"
13,410,"O=C(Cc1ccc(N2CCCCC2=O)cc1)N[C@@H]1CCN(c2cncc(C(F)(F)F)c2)C1 [Example 96, (R)-2-(4-(2-oxopiperidin-1-yl)phenyl)-N-(1-(5-(trifluoromethyl)pyridin-3-yl)pyrrolidin-3-yl)acetamide]"
14,250,"O=C(Cc1nc2ccc(Cl)cc2o1)N[C@@H]1CCN(c2cncc(C(F)(F)F)c2)C1 [Example 97, (R)-2-(6-chlorobenzo[d]oxazol-2-yl)-N-(1-(5-(trifluoromethyl)pyridin-3-yl)pyrrolidin-3-yl)acetamide]"
15,1100,"O=C(Cc1nc2ccccc2o1)N[C@@H]1CCN(c2cncc(C(F)(F)F)c2)C1 [Example 98, (R)-2-(benzo[d]oxazol-2-yl)-N-(1-(5-(trifluoromethyl)pyridin-3-yl)pyrrolidin-3-yl)acetamide]"
16,100,"O=C(Cc1ccc(N2CCC3(CC2)OCCO3)cc1)N[C@@H]1CCN(c2cncc(C(F)(F)F)c2)C1 [Example 101, (R)-2-(4-(1,4-dioxa-8-azaspiro[4.5]decan-8-yl)phenyl)-N-(1-(5-(trifluoromethyl)pyridin-3-yl)pyrrolidin-3-yl)acetamide]"
17,150,"O=C1CCN(c2ccc(CC(=O)N[C@@H]3CCN(c4cncc(C(F)(F)F)c4)C3)cc2)CC1 [Example 102, (R)-2-(4-(4-oxopiperidin-1-yl)phenyl)-N-(1-(5-(trifluoromethyl)pyridin-3-yl)pyrrolidin-3-yl)acetamide]"
18,140,"O=C(Cc1ccc(C2CC2)cc1)NC1(CO)CCN(c2cncc(C(F)(F)F)c2)C1 (centres unmarked) [Example 103, 2-(4-cyclopropylphenyl)-N-(3-(hydroxymethyl)-1-(5-(trifluoromethyl)pyridin-3-yl)pyrrolidin-3-yl)acetamide]"

row,IC50 [nM],SMILES
1,460,"CC(=O)OCC1(NC(=O)Cc2ccc(C3CC3)cc2)CCN(c2cncc(C(F)(F)F)c2)C1 (centres unmarked) [Example 104, (3-(2-(4-cyclopropylphenyl)acetamido)-1-(5-(trifluoromethyl)pyridin-3-yl)pyrrolidin-3-yl)methyl acetate]"
2,240,"COCC1(NC(=O)Cc2ccc(C3CC3)cc2)CCN(c2cncc(C(F)(F)F)c2)C1 (centres unmarked) [Example 105, 2-(4-cyclopropylphenyl)-N-(3-(methoxymethyl)-1-(5-(trifluoromethyl)pyridin-3-yl)pyrrolidin-3-yl)acetamide]"
3,240,"CC(C)c1ccc(CC(=O)NC2CCN(c3cncc(C(F)(F)F)c3)CC2)cc1 [Example 109, 2-(4-Isopropylphenyl)-N-(1-(5-(trifluoromethyl)pyridin-3-yl)piperidin-4-yl)acetamide]"
4,290,"COc1ncc(N2CC[C@@H](NC(=O)Cc3ccc(C(C)C)cc3)C2)cc1C(F)(F)F [Example 110, (R)-2-(4-isopropylphenyl)-N-(1-(6-methoxy-5-(trifluoromethyl)pyridin-3-yl)pyrrolidin-3-yl)acetamide]"
5,9900,"CC(C)c1ccc(CC(=O)N[C@@H]2CCN(c3ncc(C(F)(F)F)cn3)C2)cc1 [Example 111, (R)-2-(4-isopropylphenyl)-N-(1-(5-(trifluoromethyl)pyrimidin-2-yl)pyrrolidin-3-yl)acetamide]"
6,110,"CC(C)c1ccc(CC(=O)N[C@@H]2CCN(c3nc(C(F)(F)F)cs3)C2)cc1 [Example 112, (R)-2-(4-isopropylphenyl)-N-(1-(4-(trifluoromethyl)thiazol-2-yl)pyrrolidin-3-yl)acetamide]"
7,100,"CC(C)c1ccc(CC(=O)N[C@@H]2CCN(c3ccc(C(F)(F)F)nc3)C2)cc1 [Example 113, (R)-2-(4-isopropylphenyl)-N-(1-(6-(trifluoromethyl)pyridin-3-yl)pyrrolidin-3-yl)acetamide]"
8,1200,"CC(C)c1ccc(CC(=O)N[C@H]2CCN(c3cncc(C(F)(F)F)c3)C2)cc1 [Example 114, (S)-2-(4-isopropylphenyl)-N-(1-(5-(trifluoromethyl)pyridin-3-yl)pyrrolidin-3-yl)acetamide]"
9,91,"O=C(Cc1ccc(OC(F)(F)F)cc1)N[C@@H]1CCN(c2cncc(C(F)(F)F)c2)C1 [Example 115, (R)-2-(4-(trifluoromethoxy)phenyl)-N-(1-(5-(trifluoromethyl)pyridin-3-yl)pyrrolidin-3-yl)acetamide]"
10,40,"O=C(Cc1ccc(OCC(F)(F)F)cc1)N[C@@H]1CCN(c2cncc(C(F)(F)F)c2)C1 [Example 116, (R)-2-(4-(2,2,2-trifluoroethoxy)phenyl)-N-(1-(5-(trifluoromethyl)pyridin-3-yl)pyrrolidin-3-yl)acetamide]"
11,71,"CC(C)c1ccc(CC(=O)NC2CN(c3cncc(C(F)(F)F)c3)C2)cc1 [Example 117, 2-(4-Isopropylphenyl)-N-(1-(5-(trifluoromethyl)pyridin-3-yl)azetidin-3-yl)acetamide]"
12,2100,"CC(C)c1ccc(CC(=O)NC2CN(c3ccc(C(F)(F)F)nc3)C2)cc1 [Example 118, 2-(4-Isopropylphenyl)-N-(1-(6-(trifluoromethyl)pyridin-3-yl)azetidin-3-yl)acetamide]"
13,2300,"O=C(Cc1cc(Cl)cc(Cl)c1)N[C@@H]1CCN(c2cncc(C(F)(F)F)c2)C1 [Example 119, (R)-2-(3,5-dichlorophenyl)-N-(1-(5-(trifluoromethyl)pyridin-3-yl)pyrrolidin-3-yl)acetamide]"
14,820,"O=C(Cc1cc(F)cc(Cl)c1)N[C@@H]1CCN(c2cncc(C(F)(F)F)c2)C1 [Example 120, (R)-2-(3-chloro-5-fluorophenyl)-N-(1-(5-(trifluoromethyl)pyridin-3-yl)pyrrolidin-3-yl)acetamide]"
15,120,"O=C(Cc1ccc(C2CC2)cc1)N[C@@H]1CCN(c2ccc(C(F)(F)F)nc2)C1 [Example 121, (R)-2-(4-cyclopropylphenyl)-N-(1-(6-(trifluoromethyl)pyridin-3-yl)pyrrolidin-3-yl)acetamide]"
16,1500,"CC(C)c1ccc(CC(=O)N[C@@H]2CCN(c3ccc(C(F)(F)F)s3)C2)cc1 [Example 122, (R)-2-(4-isopropylphenyl)-N-(1-(5-(trifluoromethyl)thiophen-2-yl)pyrrolidin-3-yl)acetamide]"
17,44,"O=C(Cc1ccc(C(F)(F)F)cc1)N[C@@H]1CCN(c2cncc(C(F)(F)F)c2)C1 [Example 123, (R)-2-(4-(trifluoromethyl)phenyl)-N-(1-(5-(trifluoromethyl)pyridin-3-yl)pyrrolidin-3-yl)acetamide]"
